Data as given in ChEMBL document CHEMBL1201862, “PubChem BioAssay data set” (2004).
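96-well plates; 48 h exposure; 5 concentrations. Endpoints by linear interpolation between flanking doses. Not reached: highest tested concentration assigned. Here, GI50 denotes the concentration required for 50% inhibition of growth.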 The source made the active and inactive calls. No stated cut-off is given here; in the data, active = GI50 up to about 1.1 µM and inactive = higher.

Assays:
Experiment in all cases: growth of human tumour cells (NCI), 48 h
786-0 = test system: 786-0
A549 = test system: A549
ACHN = test system: ACHN
CAKI-1 = test system: CAKI-1
CCRF-CEM = test system: CCRF-CEM
COLO 205 = test system: COLO 205
DLD-1 = test system: DLD-1
DMS-273 = test system: DMS-273
EKVX = test system: EKVX
HCC 2998 = test system: HCC 2998
HCT-116 = test system: HCT-116
HCT-15 = test system: HCT-15
HL-60 = test system: HL-60
HOP-18 = test system: HOP-18
HOP-62 = test system: HOP-62
HOP-92 = test system: HOP-92
HT-29 = test system: HT-29
IGROV-1 = test system: IGROV-1
K562 = test system: K562
KM-20L2 = test system: KM-20L2
KM12 = test system: KM12
LOX IMVI = test system: LOX IMVI
LXFL 529 = test system: LXFL 529
M14 = test system: M14
M19-MEL = test system: M19-MEL
Malme-3M = test system: Malme-3M
NCI-H226 = test system: NCI-H226
NCI-H23 = test system: NCI-H23
NCI-H460 = test system: NCI-H460
NCI-H522 = test system: NCI-H522
OVCAR-3 = test system: OVCAR-3
OVCAR-4 = test system: OVCAR-4
OVCAR-5 = test system: OVCAR-5
OVCAR-8 = test system: OVCAR-8
RPMI-8226 = test system: RPMI-8226
RXF 393 = test system: RXF 393
SF-268 = test system: SF-268
SF-295 = test system: SF-295
SF-539 = test system: SF-539
SK-MEL-28 = test system: SK-MEL-28
SK-MEL-2 = test system: SK-MEL-2
SK-MEL-5 = test system: SK-MEL-5
SK-OV-3 = test system: SK-OV-3
SN12C = test system: SN12C
SNB-19 = test system: SNB-19
SNB-75 = test system: SNB-75
SNB-78 = test system: SNB-78
SW-620 = test system: SW-620
TK-10 = test system: TK-10
U-251 = test system: U-251
UACC-257 = test system: UACC-257
UACC-62 = test system: UACC-62
UO-31 = test system: UO-31
A498 = test system: A498
DMS-114 = test system: DMS-114
MOLT-4 = test system: MOLT-4
SR = test system: SR

In the case of `CCOC(=O)C(C)Sc1nnc(COc2ccc(Cl)cc2)n1-c1ccccc1` (stereo not drawn), the GI50 (786-0) is reported as 29.6 µM (inactive), the GI50 (A549) is reported as 43.7 µM (inactive) and the GI50 (ACHN) is reported as 17.5 µM (inactive). For the same compound, the GI50 (CAKI-1) was 16.2 µM (inactive), the GI50 (CCRF-CEM) was 14.5 µM (inactive) and the GI50 (COLO 205) was 18.4 µM (inactive). The GI50 (DLD-1) was 19.8 µM (inactive), the GI50 (DMS-273) was 16.4 µM (inactive) and the GI50 (EKVX) was 24.6 µM (inactive). The GI50 (HCC 2998) was 22.5 µM (inactive), the GI50 (HCT-116) was 21.4 µM (inactive) and the GI50 (HCT-15) was 14.7 µM. The GI50 (HL-60) was 18.5 µM (inactive), the GI50 (HOP-18) was 49 µM (inactive) and the GI50 (HOP-62) was 21.4 µM (inactive). The GI50 (HOP-92) was 20.8 µM (inactive), the GI50 (HT-29) was 18 µM (inactive) and the GI50 (IGROV-1) was 26.8 µM (inactive). The GI50 (K562) was 13.6 µM (inactive), the GI50 (KM-20L2) was 18.5 µM (inactive) and the GI50 (KM12) was 21 µM (inactive). For the same compound, the GI50 (LOX IMVI) was 14.3 µM (inactive), the GI50 (LXFL 529) was 16.4 µM (inactive) and the GI50 (M14) was 16.9 µM (inactive). The GI50 (M19-MEL) was 19.1 µM (inactive), the GI50 (Malme-3M) was 25.8 µM (inactive) and the GI50 (NCI-H226) was 21.5 µM (inactive). For the same compound, the GI50 (NCI-H23) was 20.1 µM (inactive), the GI50 (NCI-H460) was 17.7 µM (inactive) and the GI50 (NCI-H522) was 1.82 µM (inactive). The GI50 (OVCAR-3) was 17.4 µM (inactive), the GI50 (OVCAR-4) was 20.6 µM (inactive) and the GI50 (OVCAR-5) was 26.6 µM (inactive). The GI50 (OVCAR-8) was 23.4 µM (inactive), the GI50 (RPMI-8226) was 19.1 µM (inactive) and the GI50 (RXF 393) was 22.9 µM (inactive). For the same compound, the GI50 (SF-268) was 18.3 µM (inactive), the GI50 (SF-295) was 22 µM (inactive) and the GI50 (SF-539) was 21.4 µM (inactive). The GI50 (SK-MEL-28) was 21.3 µM (inactive), the GI50 (SK-MEL-2) was 13.4 µM (inactive) and the GI50 (SK-MEL-5) was 21.4 µM (inactive). For the same compound, the GI50 (SK-OV-3) was 36.1 µM (inactive), the GI50 (SN12C) was 17.9 µM (inactive) and the GI50 (SNB-19) was 19.3 µM (inactive). For the same compound, the GI50 (SNB-75) was 30.6 µM (inactive), the GI50 (SNB-78) was 26.1 µM (inactive) and the GI50 (SW-620) was 14.2 µM (inactive). For the same compound, the GI50 (TK-10) was 27.5 µM (inactive), the GI50 (U-251) was 19.5 µM (inactive) and the GI50 (UACC-257) was 23.6 µM (inactive). The GI50 (UACC-62) was 17.3 µM (inactive) and the GI50 (UO-31) was 14.7 µM (inactive).
In the case of `C=CCN(C)CN(C)c1nc(N(C)C)nc(N(C)C)n1`, the GI50 (786-0) is reported as 43.9 µM (inactive), the GI50 (A498) is reported as > 100 µM (inactive) and the GI50 (A549) is reported as > 100 µM (inactive). For the same compound, the GI50 (ACHN) was > 100 µM (inactive), the GI50 (CAKI-1) was > 100 µM (inactive) and the GI50 (CCRF-CEM) was 33 µM (inactive). For the same compound, the GI50 (COLO 205) was 86.3 µM (inactive), the GI50 (DLD-1) was 49.4 µM (inactive) and the GI50 (DMS-114) was 19.7 µM (inactive). The GI50 (DMS-273) was 22.3 µM (inactive), the GI50 (EKVX) was > 100 µM (inactive) and the GI50 (HCC 2998) was 53.2 µM (inactive). The GI50 (HCT-116) was 60.7 µM (inactive), the GI50 (HCT-15) was 34.3 µM and the GI50 (HL-60) was 21.1 µM (inactive). For the same compound, the GI50 (HOP-18) was > 100 µM (inactive), the GI50 (HOP-62) was > 100 µM (inactive) and the GI50 (HOP-92) was > 100 µM (inactive). The GI50 (HT-29) was > 100 µM (inactive), the GI50 (IGROV-1) was > 100 µM (inactive) and the GI50 (K562) was > 100 µM (inactive). For the same compound, the GI50 (KM-20L2) was > 100 µM (inactive), the GI50 (KM12) was > 100 µM (inactive) and the GI50 (LOX IMVI) was 54 µM (inactive). The GI50 (LXFL 529) was 26.1 µM (inactive), the GI50 (M14) was 50.7 µM (inactive) and the GI50 (M19-MEL) was > 100 µM (inactive). For the same compound, the GI50 (MOLT-4) was > 100 µM (inactive), the GI50 (Malme-3M) was > 100 µM (inactive) and the GI50 (NCI-H23) was > 100 µM (inactive). For the same compound, the GI50 (NCI-H460) was 11.8 µM (inactive), the GI50 (NCI-H522) was 11.2 µM (inactive) and the GI50 (OVCAR-3) was 64.6 µM (inactive). For the same compound, the GI50 (OVCAR-4) was 79.8 µM (inactive), the GI50 (OVCAR-5) was > 100 µM (inactive) and the GI50 (OVCAR-8) was > 100 µM (inactive). For the same compound, the GI50 (RPMI-8226) was 46.6 µM (inactive), the GI50 (SF-268) was > 100 µM (inactive) and the GI50 (SF-295) was > 100 µM (inactive). For the same compound, the GI50 (SF-539) was > 100 µM (inactive), the GI50 (SK-MEL-28) was > 100 µM (inactive) and the GI50 (SK-MEL-2) was > 100 µM (inactive). For the same compound, the GI50 (SK-MEL-5) was > 100 µM (inactive), the GI50 (SK-OV-3) was > 100 µM (inactive) and the GI50 (SN12C) was > 100 µM (inactive). The GI50 (SNB-19) was > 100 µM (inactive), the GI50 (SNB-75) was 44.1 µM (inactive) and the GI50 (SNB-78) was > 100 µM (inactive). For the same compound, the GI50 (SR) was 49.2 µM (inactive), the GI50 (SW-620) was 36.3 µM (inactive) and the GI50 (TK-10) was > 100 µM (inactive). The GI50 (U-251) was > 100 µM (inactive), the GI50 (UACC-257) was > 100 µM (inactive) and the GI50 (UACC-62) was > 100 µM (inactive). For the same compound, the GI50 (UO-31) was > 100 µM (inactive).
